# Literature values as cited in patent US20040059096A1, “Anti-ciguatoxin monoclonal antibody” (priority 2001, published 2004).
# Settings: species and route not given
structure (smiles),measurement,value
C[C@@H]1C[C@@H]2O[C@@H]3[C@@H](C)[C@H](O)[C@@H]4OC5(C[C@H](O)CO5)[C@@H](C)[C@H](C)[C@H]4O[C@H]3C[C@H]2O[C@H]2C[C@H]3O[C@@H]4/C=C\C[C@H]5O[C@H]6C=C[C@H]7O[C@H]8[C@H](O)[C@H]9O[C@@H](/C=C/[C@H](O)CO)C=CC[C@@H]9O[C@@H]8C[C@@H]7O[C@@H]6C=C[C@@H]5O[C@@H]4C[C@@H](O)[C@]3(C)O[C@@H]2C1 (stereo partly shown) [CTX],LD50,0.35 µg/kg
